Earlier results as cited in patent US7910678B2, “Copolymers having 1-methyl-2-methoxyethyl moieties” (Abbott Laboratories, priority 2006, dated 2011).
Read-outs that look alike come from different tables or passages of the source.

Test system: mouse

SMILES	Oral-mouse LD50 (oral) [mg/kg]	Oral-mouse LD50 (in vivo, po) [mg/kg]
COCC(C)O (stereo not shown) [1-methoxy-2-propanol]	11700	–
CCOCCO [2-ethoxyethanol]	2451	–
COCCO [2-methoxyethanol]	2560	–
CCO [ethanol]	–	3450
